Measurements from PubChem BioAssay (NCI).
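Compound exposure: 48 hours, 5 concentrations, 96-well plates. GI50 marks 50% less growth. TGI: concentration producing complete growth inhibition.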

Tests used:
Assay in all cases: growth of human tumour cells (NCI), 48 h
OVCAR-5 ovarian = test system: OVCAR-5 ovarian
DMS 273 small cell lung = test system: DMS 273 small cell lung
SNB-19 CNS = test system: SNB-19 CNS
SNB-78 CNS = test system: SNB-78 CNS
EKVX NSCLC = test system: EKVX NSCLC
786-0 renal = test system: 786-0 renal
K-562 leukemia = test system: K-562 leukemia
SW-620 colon = test system: SW-620 colon
SF-539 CNS = test system: SF-539 CNS
HL-60(TB) leukemia = test system: HL-60(TB) leukemia
HCT-116 colon = test system: HCT-116 colon
RXF 393 renal = test system: RXF 393 renal
ACHN renal = test system: ACHN renal
MOLT-4 leukemia = test system: MOLT-4 leukemia
UO-31 renal = test system: UO-31 renal
KM20L2 colon = test system: KM20L2 colon
SK-MEL-28 melanoma = test system: SK-MEL-28 melanoma
UACC-62 melanoma = test system: UACC-62 melanoma
IGROV1 ovarian = test system: IGROV1 ovarian
HOP-18 NSCLC = test system: HOP-18 NSCLC
SK-MEL-2 melanoma = test system: SK-MEL-2 melanoma
SK-MEL-5 melanoma = test system: SK-MEL-5 melanoma
HOP-92 NSCLC = test system: HOP-92 NSCLC
NCI-H522 lung = test system: NCI-H522 lung
LOX IMVI melanoma = test system: LOX IMVI melanoma
NCI-H460 lung = test system: NCI-H460 lung
CCRF-CEM leukemia = test system: CCRF-CEM leukemia
SF-268 CNS = test system: SF-268 CNS
OVCAR-4 ovarian = test system: OVCAR-4 ovarian
SN12C renal = test system: SN12C renal
HT29 colon = test system: HT29 colon
OVCAR-8 ovarian = test system: OVCAR-8 ovarian
SF-295 CNS = test system: SF-295 CNS
SK-OV-3 ovarian = test system: SK-OV-3 ovarian
NCI-H226 lung = test system: NCI-H226 lung
SR leukemia = test system: SR leukemia
TK-10 renal = test system: TK-10 renal
LXFL 529 NSCLC = test system: LXFL 529 NSCLC
U251 CNS = test system: U251 CNS
M14 melanoma = test system: M14 melanoma
COLO 205 colon = test system: COLO 205 colon
UACC-257 melanoma = test system: UACC-257 melanoma
SNB-75 CNS = test system: SNB-75 CNS
OVCAR-3 ovarian = test system: OVCAR-3 ovarian
HCC-2998 colon = test system: HCC-2998 colon
M19-MEL melanoma = test system: M19-MEL melanoma
KM12 colon = test system: KM12 colon
HOP-62 NSCLC = test system: HOP-62 NSCLC
HCT-15 colon = test system: HCT-15 colon
A549 NSCLC = test system: A549 NSCLC
MALME-3M melanoma = test system: MALME-3M melanoma
NCI-H23 lung = test system: NCI-H23 lung
A498 renal = test system: A498 renal
DLD-1 colon = test system: DLD-1 colon
DMS 114 small cell lung = test system: DMS 114 small cell lung
CAKI-1 renal = test system: CAKI-1 renal

C[CH2][Sn]([CH2]C)([O]C(=O)c1c(F)cccc1F)[O][Sn]([CH2]C)([CH2]C)[O]C(=O)c1c(F)cccc1F
GI50 (OVCAR-5 ovarian): 17.9 µM | TGI (OVCAR-5 ovarian): 31.8 µM | GI50 (DMS 273 small cell lung): 18.6 µM | TGI (DMS 273 small cell lung): 35.2 µM | GI50 (SNB-19 CNS): 17.1 µM | TGI (SNB-19 CNS): 30.8 µM | GI50 (SNB-78 CNS): 15.8 µM | TGI (SNB-78 CNS): 32.4 µM | GI50 (EKVX NSCLC): 16.8 µM | TGI (EKVX NSCLC): 30.6 µM | GI50 (786-0 renal): 16 µM | TGI (786-0 renal): 29.7 µM | GI50 (K-562 leukemia): 8.61 µM | TGI (K-562 leukemia): 37.5 µM | GI50 (SW-620 colon): 16.3 µM | TGI (SW-620 colon): 29.9 µM | GI50 (SF-539 CNS): 14.9 µM | TGI (SF-539 CNS): 28.1 µM | GI50 (HL-60(TB) leukemia): 26.5 µM | TGI (HL-60(TB) leukemia): 76.7 µM | GI50 (HCT-116 colon): 19 µM | TGI (HCT-116 colon): 34 µM | GI50 (RXF 393 renal): 13.7 µM | TGI (RXF 393 renal): 26.6 µM | GI50 (ACHN renal): 19.1 µM | TGI (ACHN renal): 33.2 µM | GI50 (MOLT-4 leukemia): 23.4 µM | TGI (MOLT-4 leukemia): 88.3 µM | GI50 (UO-31 renal): 36 µM | TGI (UO-31 renal): > 100 µM | GI50 (KM20L2 colon): 26.7 µM | TGI (KM20L2 colon): 68.8 µM | GI50 (SK-MEL-28 melanoma): 15.6 µM | TGI (SK-MEL-28 melanoma): 29 µM | GI50 (UACC-62 melanoma): 17.6 µM | TGI (UACC-62 melanoma): 31.4 µM | GI50 (IGROV1 ovarian): 69 µM | TGI (IGROV1 ovarian): > 100 µM | GI50 (HOP-18 NSCLC): 22.6 µM | TGI (HOP-18 NSCLC): 37.1 µM | GI50 (SK-MEL-2 melanoma): 14.4 µM | TGI (SK-MEL-2 melanoma): 27.7 µM | GI50 (SK-MEL-5 melanoma): 18.2 µM | TGI (SK-MEL-5 melanoma): 32.3 µM | GI50 (HOP-92 NSCLC): 18.8 µM | TGI (HOP-92 NSCLC): 32.9 µM | GI50 (NCI-H522 lung): 1.1 µM | TGI (NCI-H522 lung): 2.36 µM | GI50 (LOX IMVI melanoma): 16.1 µM | TGI (LOX IMVI melanoma): 29.9 µM | GI50 (NCI-H460 lung): 20 µM | TGI (NCI-H460 lung): 40.6 µM | GI50 (CCRF-CEM leukemia): 3.85 µM | TGI (CCRF-CEM leukemia): 17.1 µM | GI50 (SF-268 CNS): 15.3 µM | TGI (SF-268 CNS): 28.6 µM | GI50 (OVCAR-4 ovarian): 18.8 µM | TGI (OVCAR-4 ovarian): 33 µM | GI50 (SN12C renal): 16 µM | TGI (SN12C renal): 29.5 µM | GI50 (HT29 colon): 19.8 µM | TGI (HT29 colon): 42.2 µM | GI50 (OVCAR-8 ovarian): 17.2 µM | TGI (OVCAR-8 ovarian): 30.9 µM | GI50 (SF-295 CNS): 20.1 µM | TGI (SF-295 CNS): 34.5 µM | GI50 (SK-OV-3 ovarian): 41.3 µM | TGI (SK-OV-3 ovarian): > 100 µM | GI50 (NCI-H226 lung): 22 µM | TGI (NCI-H226 lung): 36.7 µM | GI50 (SR leukemia): 26.6 µM | TGI (SR leukemia): > 100 µM | GI50 (TK-10 renal): 19.2 µM | TGI (TK-10 renal): 33.3 µM | GI50 (LXFL 529 NSCLC): 5.44 µM | TGI (LXFL 529 NSCLC): 18.4 µM | GI50 (U251 CNS): 17.4 µM | TGI (U251 CNS): 31.2 µM | GI50 (M14 melanoma): 18.1 µM | TGI (M14 melanoma): 32 µM | GI50 (COLO 205 colon): 12.6 µM | TGI (COLO 205 colon): 25.1 µM | GI50 (UACC-257 melanoma): 16.5 µM | TGI (UACC-257 melanoma): 30.2 µM | GI50 (SNB-75 CNS): 16.2 µM | TGI (SNB-75 CNS): 29.7 µM | GI50 (OVCAR-3 ovarian): 25.9 µM | TGI (OVCAR-3 ovarian): 78.1 µM | GI50 (HCC-2998 colon): 42.8 µM | TGI (HCC-2998 colon): > 100 µM | GI50 (M19-MEL melanoma): 16.3 µM | TGI (M19-MEL melanoma): 30.9 µM | GI50 (KM12 colon): > 100 µM | TGI (KM12 colon): > 100 µM | GI50 (HOP-62 NSCLC): 20.8 µM | TGI (HOP-62 NSCLC): 36.9 µM | GI50 (HCT-15 colon): 17.9 µM | TGI (HCT-15 colon): 32.5 µM | GI50 (A549 NSCLC): > 100 µM | TGI (A549 NSCLC): > 100 µM | GI50 (MALME-3M melanoma): 14.9 µM | TGI (MALME-3M melanoma): 28.8 µM | GI50 (NCI-H23 lung): 15.9 µM | TGI (NCI-H23 lung): 29.3 µM | GI50 (A498 renal): 15 µM | TGI (A498 renal): 28.3 µM

CC(=O)Nc1ccc(-c2nnc(SCC(=O)Nc3ccc(Cl)cc3Cl)o2)cc1
TGI (OVCAR-5 ovarian): > 100 µM | TGI (DMS 273 small cell lung): > 100 µM | TGI (SNB-19 CNS): 51.9 µM | TGI (SNB-78 CNS): > 100 µM | TGI (786-0 renal): 44.3 µM | TGI (K-562 leukemia): > 100 µM | TGI (SW-620 colon): > 100 µM | TGI (SF-539 CNS): 84.4 µM | TGI (HL-60(TB) leukemia): > 100 µM | TGI (HCT-116 colon): > 100 µM | TGI (RXF 393 renal): 66.3 µM | TGI (ACHN renal): > 100 µM | TGI (DLD-1 colon): > 100 µM | TGI (MOLT-4 leukemia): > 100 µM | TGI (UO-31 renal): > 100 µM | TGI (KM20L2 colon): > 100 µM | TGI (DMS 114 small cell lung): 38.7 µM | TGI (SK-MEL-28 melanoma): > 100 µM | TGI (IGROV1 ovarian): > 100 µM | TGI (HOP-18 NSCLC): > 100 µM | TGI (SK-MEL-2 melanoma): > 100 µM | TGI (SK-MEL-5 melanoma): 37.4 µM | TGI (NCI-H522 lung): 48.3 µM | TGI (LOX IMVI melanoma): > 100 µM | TGI (NCI-H460 lung): > 100 µM | TGI (CCRF-CEM leukemia): > 100 µM | TGI (SF-268 CNS): > 100 µM | TGI (OVCAR-4 ovarian): > 100 µM | TGI (SN12C renal): 57.5 µM | TGI (HT29 colon): > 100 µM | TGI (OVCAR-8 ovarian): > 100 µM | TGI (SF-295 CNS): > 100 µM | TGI (SK-OV-3 ovarian): > 100 µM | TGI (NCI-H226 lung): 99 µM | TGI (TK-10 renal): > 100 µM | TGI (LXFL 529 NSCLC): 54.7 µM | TGI (U251 CNS): 38.7 µM | TGI (CAKI-1 renal): > 100 µM | TGI (M14 melanoma): > 100 µM | TGI (COLO 205 colon): 68.3 µM | TGI (UACC-257 melanoma): > 100 µM | TGI (SNB-75 CNS): 96.6 µM | TGI (OVCAR-3 ovarian): 57.9 µM | TGI (HCC-2998 colon): > 100 µM | TGI (M19-MEL melanoma): > 100 µM | TGI (KM12 colon): > 100 µM | TGI (HOP-62 NSCLC): > 100 µM | TGI (HCT-15 colon): > 100 µM | TGI (A549 NSCLC): > 100 µM | TGI (MALME-3M melanoma): 60.3 µM | TGI (NCI-H23 lung): > 100 µM | TGI (A498 renal): > 100 µM
